This passage reports ring closure, isolated yield and ring closure, yield of all isomers results from patent publication US20240317777A1, “NOVEL MACROCYCLIC AMINOPYRAZOLE COMPOUNDS AS CDK2 INHIBITORS” (Accutar Biotechnology Inc., priority 2023, published 2024).

Molecules are shown by their SMILES. Like-named read-outs stand apart in the source and are kept apart here.

For series [1] the following is noted: the molecule shown is the open-chain precursor, other bond, 18-membered ring.
For series [2] the following is noted: other bond.

The molecule `CC(C)(C)n1nc([C@H]2CC[C@@H](OC(=O)Oc3ccc([N+](=O)[O-])cc3)C2)cc1Nc1cc(OCCCCN)nc(C(F)F)c1` returned a ring closure, isolated yield in series [1] (DIEA, THF, 1.11 mM, 25.0 °C) of 65%. Molecule `CC(C)(C)n1nc([C@H]2CC[C@@H](OC(=O)Oc3ccc([N+](=O)[O-])cc3)C2)cc1Nc1cncc(OCC2CC(N)C2)n1` (stereo partly drawn) returned a ring closure, isolated yield in series [1] (DIEA, DMSO, 2.3 mM, 100.0 °C) of 38%. `CC(C)(C)n1nc([C@H]2CC[C@@H](OC(=O)Oc3ccc([N+](=O)[O-])cc3)C2)cc1Nc1cncc(OCCCCN)c1` yielded a ring closure, isolated yield in series [1] (DIEA, THF, 2.01 mM, 25.0 °C) of 49.3%. As to `CC(C)(C)n1nc([C@H]2C[C@@H](F)[C@@H](OC(=O)Oc3ccc([N+](=O)[O-])cc3)C2)cc1Nc1ccnc(OCC2CC(N)C2)c1` (stereo partly drawn), in series [1] (DIEA, THF, 1.7 mM, 60.0 °C), the ring closure, isolated yield was 37%.

The molecule `CC(C)(N)CCCOc1cc(Nc2cc([C@H]3CC[C@@H](OC(=O)Oc4ccc([N+](=O)[O-])cc4)C3)nn2C(C)(C)C)ccn1` returned a ring closure, isolated yield in series [1] (DIEA/DMAP, THF, 1.81 mM, 50.0 °C) of 88.8%. Regarding `CC(N)CCCOc1cc(Nc2cc([C@H]3CC[C@@H](OC(=O)Oc4ccc([N+](=O)[O-])cc4)C3)nn2C(C)(C)C)ccn1` (stereo partly drawn), in series [1] (DIEA, THF, 2.06 mM, 30.0 °C), the ring closure, isolated yield came out at 98.5%. Turning to `C[C@@H](N)CC/C=C/c1cc(Nc2cc([C@H]3CC[C@@H](OC(=O)Oc4ccc([N+](=O)[O-])cc4)C3)nn2C(C)(C)C)ccn1`, the ring closure, isolated yield in series [1] (DIEA, THF, 1.46 mM, 70.0 °C) stood at 98.6%. In the case of `C[C@@H](N)CCCCc1cc(Nc2cc([C@H]3CC[C@@H](OC(=O)Oc4ccc([N+](=O)[O-])cc4)C3)nn2C(C)(C)C)ccn1`, in series [1] (DIEA, THF, 1.42 mM, 100.0 °C), the ring closure, isolated yield came out at 99.5%. In turn, `C[C@@H]1CCCCc2cc(ccn2)Nc2cc(nn2C(C)(C)C)[C@H]2CC[C@H](C2)OC(=O)N1` yielded a ring closure, yield of all isomers in series [2] (from C[C@@H](N)CCCCc1cc(Nc2cc([C@H]3CC[C@@H](OC(=O)Oc4ccc([N+](=O)[O-])cc4)C3)nn2C(C)(C)C)ccn1, DIPEA, THF, 1.42 mM, 100.0 °C, 3.0 h) of 99.5%. `C[C@@H]1NC(=O)O[C@@H]2CC[C@@H](C2)c2cc(n(C(C)(C)C)n2)Nc2ccnc(c2)OCCC1(F)F` showed a ring closure, yield of all isomers in series [2] (from C[C@H](N)C(F)(F)CCOc1cc(Nc2cc([C@H]3CC[C@@H](OC(=O)Oc4ccc([N+](=O)[O-])cc4)C3)nn2C(C)(C)C)ccn1, DIEA, DMSO, 1.15 mM, 100.0 °C, 16.0 h) of 87.3%. On to `C[C@@H]1NC(=O)O[C@@H]2CC[C@@H](C2)c2cc(n(C(C)(C)C)n2)Nc2ccnc(c2)OCCC1F` (stereo partly drawn), for which the ring closure, yield of all isomers in series [2] (from C[C@H](N)C(F)CCOc1cc(Nc2cc([C@H]3CC[C@@H](OC(=O)Oc4ccc([N+](=O)[O-])cc4)C3)nn2C(C)(C)C)ccn1, DIEA, DMSO, 1.71 mM, 100.0 °C, 2.0 h) amounted to 97%. Regarding `C[C@@H]1NC(=O)O[C@H]2C[C@H](C[C@H]2F)c2cc(n(C(C)(C)C)n2)Nc2ccnc(c2)OCCC1(F)F`, the ring closure, yield of all isomers in series [2] (from C[C@H](N)C(F)(F)CCOc1cc(Nc2cc([C@H]3C[C@@H](F)[C@@H](OC(=O)Oc4ccc([N+](=O)[O-])cc4)C3)nn2C(C)(C)C)ccn1, DIEA, DMSO, 3.13 mM, 100.0 °C, 12.0 h) was found to be 88%. `C[C@H](N)C(F)(F)CCOc1cc(Nc2cc([C@H]3C[C@@H](F)[C@@H](OC(=O)Oc4ccc([N+](=O)[O-])cc4)C3)nn2C(C)(C)C)ccn1` returned a ring closure, isolated yield in series [1] (DIEA, DMSO, 3.13 mM, 100.0 °C) of 88%. The molecule `C[C@H](N)C(F)CCOc1cc(Nc2cc([C@H]3CC[C@@H](OC(=O)Oc4ccc([N+](=O)[O-])cc4)C3)nn2C(C)(C)C)ccn1` (stereo partly drawn) gave a ring closure, isolated yield in series [1] (DIEA, DMSO, 1.71 mM, 100.0 °C) of 97%. `C[C@H](N)CCCOc1nccc(Nc2cc([C@H]3CC[C@@H](OC(=O)Oc4ccc([N+](=O)[O-])cc4)C3)nn2C(C)(C)C)n1` displayed a ring closure, isolated yield in series [1] (DIEA, DMSO, 1.79 mM, 80.0 °C) of 93%.

In turn, `C[C@H]1CC(F)(F)COc2cc(ccn2)Nc2cc(nn2C(C)(C)C)[C@H]2CC[C@H](C2)OC(=O)N1` registered a ring closure, yield of all isomers in series [2] (from C[C@H](N)CC(F)(F)COc1cc(Nc2cc([C@H]3CC[C@@H](OC(=O)Oc4ccc([N+](=O)[O-])cc4)C3)nn2C(C)(C)C)ccn1, DIEA, THF, 1.83 mM, 80.0 °C, 12.0 h) of 66.2%.

Consider `C[C@H]1CC/C=C/c2cc(ccn2)Nc2cc(nn2C(C)(C)C)[C@H]2CC[C@H](C2)OC(=O)N1`, for which the ring closure, yield of all isomers in series [2] (from C[C@H](N)CC/C=C/c1cc(Nc2cc([C@H]3CC[C@@H](OC(=O)Oc4ccc([N+](=O)[O-])cc4)C3)nn2C(C)(C)C)ccn1, DIEA, THF, 1.6 mM, 60.0 °C, 2.0 h) was found to be 93.9%.

Consider `C[C@H]1CCCC(F)(F)c2cc(ccn2)Nc2cc(nn2C(C)(C)C)[C@H]2CC[C@H](C2)OC(=O)N1`, for which the ring closure, yield of all isomers in series [2] (from C[C@H](N)CCCC(F)(F)c1cc(Nc2cc([C@H]3CC[C@@H](OC(=O)Oc4ccc([N+](=O)[O-])cc4)C3)nn2C(C)(C)C)ccn1, DIEA, THF, 1.33 mM, 25.0 °C, 3.0 h) was 99.3%.

Regarding `C[C@H]1CCCCc2cc(ccn2)Nc2cc(nn2C(C)(C)C)[C@H]2CC[C@H](C2)OC(=O)N1`, the ring closure, yield of all isomers in series [2] (from C[C@H](N)CCCCc1cc(Nc2cc([C@H]3CC[C@@H](OC(=O)Oc4ccc([N+](=O)[O-])cc4)C3)nn2C(C)(C)C)ccn1, DIEA, THF, 0.92 mM, 20.0 °C, 4.0 h) is 91.9%. Turning to `C[C@H]1CCCOc2cc(c(F)cn2)Nc2cc(nn2C(C)(C)C)[C@H]2CC[C@H](C2)OC(=O)N1`, the ring closure, yield of all isomers in series [2] (from C[C@H](N)CCCOc1cc(Nc2cc([C@H]3CC[C@@H](OC(=O)Oc4ccc([N+](=O)[O-])cc4)C3)nn2C(C)(C)C)c(F)cn1, DIEA, THF, 1.71 mM, 25.0 °C, 3.0 h) is 99.9%. `C[C@H]1CCCOc2cc(cc(F)n2)Nc2cc(nn2C(C)(C)C)[C@H]2CC[C@H](C2)OC(=O)N1` had a ring closure, yield of all isomers in series [2] (from C[C@H](N)CCCOc1cc(Nc2cc([C@H]3CC[C@@H](OC(=O)Oc4ccc([N+](=O)[O-])cc4)C3)nn2C(C)(C)C)cc(F)n1, DIEA, THF, 1.71 mM, 25.0 °C, 3.0 h) of 97.8%. In series [2] (from C[C@H](N)CCCOc1cc(Nc2cc([C@H]3CC[C@@H](OC(=O)Oc4ccc([N+](=O)[O-])cc4)C3)nn2C(C)(C)C)ccn1, DIEA, THF, 3.53 mM, 50.0 °C, 12.0 h), `C[C@H]1CCCOc2cc(ccn2)Nc2cc(nn2C(C)(C)C)[C@H]2CC[C@H](C2)OC(=O)N1` displayed a ring closure, yield of all isomers of 84.8%. In turn, `C[C@H]1CCCOc2nccc(n2)Nc2cc(nn2C(C)(C)C)[C@H]2CC[C@H](C2)OC(=O)N1` returned a ring closure, yield of all isomers in series [2] (from C[C@H](N)CCCOc1nccc(Nc2cc([C@H]3CC[C@@H](OC(=O)Oc4ccc([N+](=O)[O-])cc4)C3)nn2C(C)(C)C)n1, DIEA, DMSO, 1.79 mM, 80.0 °C, 3.0 h) of 93%.

Molecule `C[C@H]1CCO[C@H](C)c2cc(ccn2)Nc2cc(nn2C(C)(C)C)[C@H]2CC[C@H](C2)OC(=O)N1` yielded a ring closure, yield of all isomers in series [2] (from C[C@H](N)CCO[C@H](C)c1cc(Nc2cc([C@H]3CC[C@@H](OC(=O)Oc4ccc([N+](=O)[O-])cc4)C3)nn2C(C)(C)C)ccn1, DIEA, THF, 0.86 mM, 25.0 °C, 12.0 h) of 92.1%.
